The values below come from US12485121B2, “Antiviral agents for the treatment and prevention of HIV infection” (Pharmasyntez, Joint Stock Company, priority 2020, dated 2025).

SMILES strings stand for the structures. pIC50: −log10 of the molar value.

The experiment relates to HIV-1 subtype A strain 12RU 69831. Briefly: Inhibition of HIV-1 reproduction / protection of infected MT-4 cells (living cell concentration, p24 production). It is filed as cell-based. The note with it: Human immunodeficiency virus 1, MT4, MT-4 cells infected with HIV-1 at a constant virus dose of 300 CCID50; read-out: Activity against HIV-1 12RU 69831 strain (subtype A). As to the method: Evaluation of HIV reproduction inhibition/protection of human cells by anti-HIV products of the present invention was conducted by measuring change in living cells concentration in experimental wells with MT-4 cells infected with HIV-1, as well as by the production of viral protein p24 with adding different concentrations of compounds according to the present invention. Antiviral activity of products against HIV-1 subtype A strain 12RU 69831 was determined, when the cell culture was infected with a constant dose of virus, corresponding to 300 CCID50.
Regarding `Cc1cc(C#N)cc(C)c1Oc1nc(Nc2ccc(C#N)cc2)nc2c1CN(C(=O)[C@@H](N)Cc1ccc(O)cc1)CC2` [BB0274125, (S)-4-((6-(2-Amino-3-(4-hydroxyphenyl)propanoyl)-2-((4-cyanophenyl)amino)-5,6,7,8-tetrahydropyrido[4,3-d]pyrimidine-4-yl)oxy)-3,5-dimethylbenzonitrile], the pIC50 was 4.09. Take `Cc1cc(C#N)cc(C)c1Oc1nc(Nc2ccc(C#N)cc2)nc2c1CN(C(=O)[C@H](NC(=O)OC(C)(C)C)C(C)C)CC2` [BB0274126, (R)-Tert-butyl (1-(4-(4-cyano-2,6-dimethylphenoxy)-2-((4-cyanophenyl)amino)-7,8-dihydropyrido[4,3-d]pyrimidine-6(5H)-yl)-3-methyl-1-oxobutane-2-yl)carbamate]: the pIC50 is 4.34. Under `Cc1cc(C#N)cc(C)c1Oc1nc(Nc2ccc(C#N)cc2)nc2c1CN(C(=O)[C@H](N)C(C)C)CC2` [BB0274127, (R)-4-((6-(2-Amino-3-methylbutanoyl)-2-((4-cyanophenyl)amino)-5,6,7,8-tetrahydropyrido[4,3-d]pyrimidine-4-yl)oxy)-3,5-dimethylbenzonitrile] stands 4.92; under `Cc1cc(C#N)cc(C)c1Oc1nc(Nc2ccc(C#N)cc2)nc2c1CN(C(=O)[C@H](CC(C)C)NC(=O)OC(C)(C)C)CC2` [BB0274128, (S)-Tert-butyl (1-(4-(4-cyano-2,6-dimethylphenoxy)-2-((4-cyanophenyl)amino)-7,8-dihydropyrido[4,3-d]pyrimidine-6(5H)-yl)-4-methyl-1-oxopentane-2-yl)carbamate], 3.95; under `Cc1cc(C#N)cc(C)c1Oc1nc(Nc2ccc(C#N)cc2)nc2c1CN(C(=O)[C@@H](N)CC(C)C)CC2` [BB0274129, (S)-4-((6-(2-Amino-4-methylpentanoyl)-2-((4-cyanophenyl)amino)-5,6,7,8-tetrahydropyrido[4,3-d]pyrimidine-4-yl)oxy)-3,5-dimethylbenzonitrile], 5.98. With `Cc1cc(C#N)cc(C)c1Oc1nc(Nc2ccc(C#N)cc2)nc2c1CN(C(=O)[C@H](CCCCNC(=O)OC(C)(C)C)NC(=O)OC(C)(C)C)CC2` [BB0274130, (S)-Di-tert-butyl (6-(4-(4-cyano-2,6-dimethylphenoxy)-2-((4-cyanophenyl)amino)-7,8-dihydropyrido[4,3-d]pyrimidine-6(5H)-yl)-6-oxohexane-1,5-diyl)dicarbamate] the figure was 3.62. Regarding `Cc1cc(C#N)cc(C)c1Oc1nc(Nc2ccc(C#N)cc2)nc2c1CN(C(=O)[C@@H](N)CCCCN)CC2` [BB0274131, (S)-4-((2-((4-Cyanophenyl)amino)-6-(2,6-diaminohexanoyl)-5,6,7,8-tetrahydropyrido[4,3-d]pyrimidine-4-yl)oxy)-3,5-dimethylbenzonitrile], the pIC50 is 6.18. Consider `CSCC[C@H](N)C(=O)N1CCc2nc(Nc3ccc(C#N)cc3)nc(Oc3c(C)cc(C#N)cc3C)c2C1` [BB0274132, 4-((2-((4-cyanophenyl)amino)-6-methionyl-5,6,7,8-tetrahydropyrido[4,3-d]pyrimidin-4-yl)oxy)-3,5-dimethylbenzonitrile], for which the pIC50 is 6.04. As to `Cc1cc(C#N)cc(C)c1Oc1nc(Nc2ccc(C#N)cc2)nc2c1CCN(C(=O)CCl)CC2` [BB0274133, 4-((7-(2-Chloroacetyl)-2-((4-cyanophenyl)amino)-6,7,8,9-tetrahydro-5H-pyrimido[4,5-d]azepine-4-yl)oxy)-3,5-dimethylbenzonitrile], the pIC50 was 4.98.

Regarding `COC(=O)N1CCc2nc(Nc3ccc(C#N)cc3)nc(Oc3c(C)cc(C#N)cc3C)c2CC1` [BB0274134, Methyl 4-(4-cyano-2,6-dimethylphenoxy)-2-((4-4-cyanophenyl)amino)-8,9-dihydro-5H-pyrimido[4,5-d]azepine-7(6H)-carboxylate], the pIC50 was 7.02. For the molecule `Cc1cc(C#N)cc(C)c1Oc1nc(Nc2ccc(C#N)cc2)nc2c1CCN(S(C)(=O)=O)CC2` [BB0274135, 4-((2-((4-Cyanophenyl)amino)-7-(methylsulfonyl)-6,7,8,9-tetrahydro-5H-pyrimido[4,5-d]azepine-4-yl)oxy)-3,5-dimethylbenzonitrile], the pIC50 is 5.21.
